Where “and” joins values, the source holds several entries; their conditions need not be identical. Identical values can stand only once.
Experiments:
[1] = test system: C. elegans complex III (decylubiquinol-cytochrome C reductase); experiment: In vitro complex III activity assay, C. elegans mitochondria; type: biochemical, Caenorhabditis elegans
Method in brief: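 Mitochondria were isolated from adult C. elegans by bead-beating and differential centrifugation, then used at 0.2 mg/mL protein. Antimycin A-sensitive complex III activity was followed as decylubiquinol-driven cytochrome C reduction at 550 nm every 30 s for 15 min. Initial linear slopes were expressed as percent of solvent control.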

[2] = test system: adult H. polygyrus; type: cell-based, Heligmosomoides polygyrus; settings: 10 µM, 24-h exposure, aerobic
Experimental: After either 24- or 72 h chemical treatment, worm viability was manually scored by an examiner using a scale from 0 (dead) to 3 (motile); DMSO was used as a negative control in both 24- and 72 h treatments. The percentage of affected worms (i.e., worms with a score equal to or lower than 1.5) in each biological replicate is shown; data are from two biological replicates. Within each boxplot, black horizontal lines denote group medians, boxes span from the 25th to the 75th percentile of each group’s distribution, and whiskers extend to the maximum and minimum values.
The eleven benzimidazole derivatives were tested at a concentration of 10 µM under aerobic conditions against L3 and adult H. polygyrus.
For the larval assay, mice feces were collected 2 weeks post-infection and eggs were isolated. The eggs were left on agar at room temperature in the dark for eight to 10 days to allow them to develop into L3. Next, 30–40 L3 were incubated (37 °C, 5% CO2) in the culture medium (RPMI 1640 medium + 1% pen./strep. + 5% amphotericin B) containing the derivatives in 96-well plate (Corning, USA) reaching a final volume of 250 µL for 24 h. For the adult drug screening assay, female NMRI mice were euthanized with CO2 and adult H. polygyrus were dissected out of the intestines. Subsequently, three worms were exposed to the culture medium (RPMI 1640 medium + 1% pen./strep. + 5% amphotericin B) with the derivatives (2 mL) in a 24-well plate (Corning, USA) for either 24 or 72 h. DMSO ( < 1%) served as a negative control in both assays. All conditions were tested in duplicates. Finally, 80 µL of hot water ( ~ 80 °C) for L3 and 500 µL of hot water (~80 °C) for adults were added to the wells to check for their viability under a microscope (Carl Zeiss, Germany). Larvae were categorized as being either alive or dead, depending on whether they moved or not. […] The whole experiment was performed two times i.e., two independent biological replicates for both life stages (L3s and adults) and exposure times (24 and 72 h).

[3] = test system: L1 wild-type C. elegans; experiment: whole plant or invertebrate; settings: Caenorhabditis elegans, 15 h, read-out: C. elegans KCN Survival Assay LC50
[4] = test system: C. elegans complex IV (cytochrome C oxidase); experiment: In vitro complex IV activity assay, C. elegans mitochondria; type: biochemical, Caenorhabditis elegans
Method in brief: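 Cytochrome C oxidase activity read spectrophotometrically at 550 nm (30 s intervals, 15 min) as oxidation of freshly DTT-reduced CytC. Mitochondria (0.2 mg/mL) came from adult worms of six C. elegans strains grown at 20 °C. Rates were taken from initial linear phase and normalised to solvent-control wells.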

[5] = 100 µM compound, relative to solvent control, mean (SEM)
[6] = 100 μM of NPD compound, C. elegans mitochondria, individual biological replicates
[7] = 100 μM of NPD compound, C. elegans mitochondria, mean of four biological replicates

## CC(C)Cc1ccc(C(C)c2nc3ccccc3n2C)cc1 (centres unmarked) [NPD8790]
[1]; [5]
  % Activity Complex III: 63.54 (0.90) %
[1]; [6]
  Percent in vitro activity, Complex III (single replicate Rep1-Rep4): 58.669% and 65.835% and 63.074% and 66.590%
[1]; [7]
  Percent in vitro activity, Complex III (Mean): 63.542%
[2]
  effect on adult H. polygyrus viability: potent effects
[3]
  LC50: 14.3 µM
[4]; [5]
  % Activity Complex IV: 79.84 (1.34) %
[4]; [6]
  Percent in vitro activity, Complex IV (single replicate Rep1-Rep4): 83.143% and 80.952% and 83.287% and 71.964%
[4]; [7]
  Percent in vitro activity, Complex IV (Mean): 79.837%
